# Literature values, collected in patent US20030158158A1, “Oct preparations” (priority 2000, published 2003).
# How the values were obtained:
# [1] = not given; remark: listed apart in the source
# [2] = not given; remark: listed apart in the source
compound,measurement,setting,value
"C=C1/C(=C\C=C2/CCC[C@]3(C)[C@@H]([C@H](C)OCCC(C)(C)O)CC[C@@H]23)C[C@@H](O)C[C@@H]1O [OCT, 1α,25-dihydroxy-22-oxavitamin D3]",decomposition in aqueous solutions,,rapidly decompose
same,in vitro differentiation-inducing activity,[1],strong
same,in vivo calcium elevating effect,[2],low
